The values that follow are results of earlier work, collected in patent publication US20060257483A1, “Controlled release bupropion dosage forms” (ABRIKA Pharmaceuticals, priority 2005, published 2006).

Each structure is given as a SMILES string. Where a name gives a salt, the structure may show the parent alone.

The conditions of the data set: powder.

For the compound `CC(NC(C)(C)C)C(=O)c1cccc(Cl)c1` (stereo not shown) [bupropion hydrochloride], the solubility in water entry is on record as “highly soluble in water”.
